The values that follow are results of earlier work, collected in US7265248B1, “Compositions and methods for the treatment of malaria” (Technology Innovations, LLC, priority 2005, dated 2007).

The target of data set [1] is T1, alpha/beta IV (Bos taurus, UniProt Q3ZBU7).
T1 construct: microtubules were prepared from bovine cerebra by the method of Fellous et al and tubulin was purified therefrom by phosphocellulose chromatography; from tissue; host or cells: bovine cerebra (brain)
The conditions noted are these: compared with unfractionated tubulin, alpha/beta II, alpha/beta III.

The target in data set [2] is T2, alpha/beta III (Bos taurus, UniProt Q2T9S0).
T2 construct: microtubules were prepared from bovine cerebra by the method of Fellous et al and tubulin was purified therefrom by phosphocellulose chromatography; from tissue; host or cells: bovine cerebra (brain)
The conditions noted are these: compared with unfractionated tubulin.

Data set [3] concerns the target T3, alpha/beta II (Bos taurus, UniProt Q6B856).
T3 construct: microtubules were prepared from bovine cerebra by the method of Fellous et al and tubulin was purified therefrom by phosphocellulose chromatography; from tissue; host or cells: bovine cerebra (brain)
Particulars: compared with unfractionated tubulin.

For data set [4] the following is noted: in vivo.
Experiment in data set [5]: not given
The source holds these as a separate data set.

Data set [6] has as its target alpha/beta III dimer (Bos taurus, UniProt Q2T9S0). The conditions noted are these: compared with alpha/beta II and alpha/beta IV dimers.

Like-named read-outs stand apart in the source and are kept apart here.

T2 sequence (Q2T9S0 whole entry): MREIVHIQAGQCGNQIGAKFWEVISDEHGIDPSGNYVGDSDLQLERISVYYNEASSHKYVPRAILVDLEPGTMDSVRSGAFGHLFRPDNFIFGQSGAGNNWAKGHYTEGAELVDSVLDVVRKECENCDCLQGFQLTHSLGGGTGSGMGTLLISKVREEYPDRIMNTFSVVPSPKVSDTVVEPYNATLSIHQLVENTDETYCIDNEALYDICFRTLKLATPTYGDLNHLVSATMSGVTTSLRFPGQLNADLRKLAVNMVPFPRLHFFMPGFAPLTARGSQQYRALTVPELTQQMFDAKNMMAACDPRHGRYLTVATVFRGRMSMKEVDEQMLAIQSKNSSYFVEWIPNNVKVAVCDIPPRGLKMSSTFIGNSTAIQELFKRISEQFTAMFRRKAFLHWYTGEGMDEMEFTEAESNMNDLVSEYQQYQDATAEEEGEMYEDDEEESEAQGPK
T2 sequence (P81947 whole entry, further chain): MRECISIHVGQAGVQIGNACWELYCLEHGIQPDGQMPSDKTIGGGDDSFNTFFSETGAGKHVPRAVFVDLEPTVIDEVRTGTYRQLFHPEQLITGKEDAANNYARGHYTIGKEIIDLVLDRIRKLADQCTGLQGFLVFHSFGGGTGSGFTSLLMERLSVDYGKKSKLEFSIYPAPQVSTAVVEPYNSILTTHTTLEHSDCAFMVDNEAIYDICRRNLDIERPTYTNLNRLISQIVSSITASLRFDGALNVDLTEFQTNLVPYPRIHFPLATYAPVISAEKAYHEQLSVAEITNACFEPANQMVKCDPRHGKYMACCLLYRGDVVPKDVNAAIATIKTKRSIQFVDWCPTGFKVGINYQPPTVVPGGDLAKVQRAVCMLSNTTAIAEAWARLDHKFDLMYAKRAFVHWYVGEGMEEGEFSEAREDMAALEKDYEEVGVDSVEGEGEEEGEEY
Chain of alpha/beta III dimer (Q2T9S0 whole entry): as the sequence (Q2T9S0 whole entry) above
Chain of alpha/beta III dimer (P81947 whole entry, further chain): as the sequence (P81947 whole entry, further chain) above
T1 sequence (P81947 whole entry): as the sequence (P81947 whole entry, further chain) above
T1 sequence (Q3ZBU7 whole entry): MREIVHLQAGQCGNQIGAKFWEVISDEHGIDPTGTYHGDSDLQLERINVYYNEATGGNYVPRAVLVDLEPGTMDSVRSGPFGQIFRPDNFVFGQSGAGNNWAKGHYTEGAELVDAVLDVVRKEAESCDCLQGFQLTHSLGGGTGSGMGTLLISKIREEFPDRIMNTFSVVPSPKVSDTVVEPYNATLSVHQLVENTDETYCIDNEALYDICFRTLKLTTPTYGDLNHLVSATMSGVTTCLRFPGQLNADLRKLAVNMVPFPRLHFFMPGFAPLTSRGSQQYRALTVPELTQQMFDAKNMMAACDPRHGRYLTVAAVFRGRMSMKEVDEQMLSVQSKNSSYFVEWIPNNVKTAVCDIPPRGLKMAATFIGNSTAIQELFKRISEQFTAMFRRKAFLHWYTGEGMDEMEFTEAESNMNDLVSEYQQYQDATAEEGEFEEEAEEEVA
T3 sequence (P81947 whole entry): as the sequence (P81947 whole entry, further chain) above
T3 sequence (Q6B856 whole entry): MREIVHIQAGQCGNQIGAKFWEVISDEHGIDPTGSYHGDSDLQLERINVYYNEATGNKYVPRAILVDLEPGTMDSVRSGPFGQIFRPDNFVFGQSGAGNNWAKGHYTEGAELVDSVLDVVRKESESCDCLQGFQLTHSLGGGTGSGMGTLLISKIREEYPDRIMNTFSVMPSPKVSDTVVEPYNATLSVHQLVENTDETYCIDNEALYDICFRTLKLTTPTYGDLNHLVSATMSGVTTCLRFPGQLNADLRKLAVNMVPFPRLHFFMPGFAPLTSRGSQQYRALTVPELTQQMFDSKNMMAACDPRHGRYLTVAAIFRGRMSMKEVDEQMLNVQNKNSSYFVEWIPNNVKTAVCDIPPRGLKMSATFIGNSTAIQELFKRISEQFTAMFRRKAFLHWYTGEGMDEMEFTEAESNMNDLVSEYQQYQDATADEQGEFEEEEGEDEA

Consider `COc1cc(OC)c(Cl)c(-n2c(-c3ccccc3)cc(=O)c(C)c2-c2ccc(F)cc2)c1` [IKP-104], for which the “apparent dissociation constant for the high-affinity site (Kd1)” value was “greater than those of unfractionated tubulin, alpha/beta II, or alpha/beta III” in data set [1]; “lower than that of unfractionated tubulin” in data set [2]; “lower than that of unfractionated tubulin” in data set [3].

On to `O=C1C(O)=C([C@H]2CC[C@H](c3ccc(Cl)cc3)CC2)C(=O)c2ccccc21` [atovaquone], for which, in data set [4], the side effects entry was “rash, vomiting, diarrhea, fever and headache”. Further, the half life (in vivo) was 36 to 72 h. The pharmacokinetic profile entry (in words) was “double peaking”. Also, the protein binding in data set [5] is listed as 99%.

As to `CCN(CC)CCCC(C)Nc1ccnc2cc(Cl)ccc12` (stereo not shown) [chloroquine], the side effects result in data set [4] is “cardiovascular and CNS effects”. For the same compound, the volume of distribution entry (in vivo) is recorded as “over 100 l/kg”. The half life result (in words) is recorded as “days to weeks”.

As for `OC(c1cc(C(F)(F)F)nc2c(C(F)(F)F)cccc12)C1CCCCN1` (stereo not shown) [mefloquine], under “in words”, the volume of distribution entry is listed as “several times the volume of body water”. Besides, in data set [5], the protein binding is recorded as about 98%.

In the case of `CC(=O)O[C@H]1C(=O)[C@@]2(C)[C@H]([C@H](OC(=O)c3ccccc3)[C@]3(O)C[C@H](OC(=O)[C@H](O)[C@@H](NC(=O)c4ccccc4)c4ccccc4)C(C)=C1C3(C)C)[C@]1(OC(C)=O)CO[C@@H]1C[C@@H]2O` [paclitaxel], the interaction with ligand result in data set [6] is given as “much less strongly”.

`COc1cc(NC(C)CCCN)c2ncccc2c1` (stereo not shown) [primaquine]: the side effects entry in data set [4] is on record as “blood dyscrasias”.

`CCc1nc(N)nc(N)c1-c1ccc(Cl)cc1` [pyrimethamine]: in data set [4], the side effects entry is “blood dyscrasias”. For the same compound, for the setting “in vivo”, the half life was 80 to 95 h.
